Reference: PubChem BioAssay (NCI)
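Results reflect a 48-hour exposure of cells in 96-well plates to compound at five concentrations. Abbreviation: GI50, concentration required for 50% inhibition of growth. TGI marks complete inhibition of growth.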

How the values were obtained:
Test in all cases: DTP human tumour cell line panel, 48 h
[1] = system: MALME-3M melanoma
[2] = system: IGROV1 ovarian
[3] = system: M14 melanoma
[4] = system: SF-295 CNS
[5] = system: TK-10 renal
[6] = system: HS 578T breast
[7] = system: SK-MEL-2 melanoma
[8] = system: OVCAR-8 ovarian
[9] = system: HCC-2998 colon
[10] = system: 786-0 renal
[11] = system: SNB-19 CNS
[12] = system: BT-549 breast
[13] = system: K-562 leukemia
[14] = system: LOX IMVI melanoma
[15] = system: SNB-75 CNS
[16] = system: T-47D breast
[17] = system: HOP-62 NSCLC
[18] = system: PC-3 prostate
[19] = system: NCI-H23 lung
[20] = system: NCI-H460 lung
[21] = system: COLO 205 colon
[22] = system: HT29 colon
[23] = system: MCF7 breast
[24] = system: OVCAR-5 ovarian
[25] = system: SK-MEL-5 melanoma
[26] = system: A549 NSCLC
[27] = system: OVCAR-4 ovarian
[28] = system: SK-MEL-28 melanoma
[29] = system: NCI-H522 lung
[30] = system: OVCAR-3 ovarian
[31] = system: RXF 393 renal
[32] = system: SF-539 CNS
[33] = system: ACHN renal
[34] = system: KM12 colon
[35] = system: CCRF-CEM leukemia
[36] = system: HCT-15 colon
[37] = system: EKVX NSCLC
[38] = system: SW-620 colon
[39] = system: UACC-257 melanoma
[40] = system: A498 renal
[41] = system: SK-OV-3 ovarian
[42] = system: UO-31 renal
[43] = system: UACC-62 melanoma
[44] = system: SR leukemia
[45] = system: CAKI-1 renal
[46] = system: MDA-MB-435
[47] = system: HOP-92 NSCLC
[48] = system: MDA-MB-231 breast
[49] = system: DU-145 prostate
[50] = system: NCI/ADR-RES ovarian
[51] = system: SN12C renal
[52] = system: SF-268 CNS
[53] = system: MOLT-4 leukemia
[54] = system: U251 CNS
[55] = system: HCT-116 colon
[56] = system: NCI-H226 lung
[57] = system: RPMI-8226 leukemia
[58] = system: HL-60(TB) leukemia

Work on N#CC(C#N)=C/C=C(\Sc1nc2ccccc2s1)c1ccc(Cl)cc1 yielded a GI50 [1] of 5.29 µM, a TGI [1] of 16.5 µM and a GI50 [2] of 4.87 µM. It also gave a TGI [2] of 12.5 µM, a GI50 [3] of 3.19 µM and a TGI [3] of 10.5 µM. For the same compound, the GI50 [4] was 8.9 µM, the TGI [4] was 27.7 µM and the GI50 [5] was 6.18 µM. It also gave a TGI [5] of 15 µM, a GI50 [6] of 6.68 µM and a TGI [6] of 27.9 µM. The GI50 [7] was 27.8 µM, the TGI [7] was over 100 µM and the GI50 [8] was 7.53 µM. For the same compound, the TGI [8] was 25 µM, the GI50 [9] was 13.8 µM and the TGI [9] was 29 µM. The GI50 [10] was 3.43 µM, the TGI [10] was 12 µM and the GI50 [11] was 8.12 µM. For the same compound, the TGI [11] was over 41.2 µM, the GI50 [12] was 11.3 µM and the TGI [12] was 26.2 µM. It also gave a GI50 [13] of 1.45 µM, a TGI [13] of over 24.6 µM and a GI50 [14] of 2.59 µM. For the same compound, the TGI [14] was over 26.5 µM, the GI50 [15] was 1.31 µM and the TGI [15] was 8.82 µM. It also gave a TGI [16] of over 33 µM, a GI50 [17] of 14 µM and a TGI [17] of 30.5 µM. It also gave a GI50 [18] of 6.67 µM, a TGI [18] of 27.7 µM and a GI50 [19] of 3.56 µM. For the same compound, the TGI [19] was 13.2 µM, the GI50 [20] was 18 µM and the TGI [20] was over 64.9 µM. For the same compound, the GI50 [21] was 3.26 µM, the TGI [21] was over 27.7 µM and the GI50 [22] was 3.27 µM. The TGI [22] was over 31.7 µM, the GI50 [23] was 7.65 µM and the TGI [23] was over 100 µM. For the same compound, the GI50 [24] was 7.02 µM, the TGI [24] was 21.5 µM and the GI50 [25] was 10.4 µM. For the same compound, the TGI [25] was 24.6 µM, the GI50 [26] was 9.32 µM and the TGI [26] was 30.5 µM. For the same compound, the GI50 [27] was 16 µM, the TGI [27] was 47.5 µM and the GI50 [28] was 5.34 µM. The TGI [28] was 21.7 µM, the GI50 [29] was 10.1 µM and the TGI [29] was 41.9 µM. The GI50 [30] was 4.77 µM, the TGI [30] was 22.9 µM and the GI50 [31] was 7.59 µM. It also gave a TGI [31] of 25.9 µM, a GI50 [32] of 2.83 µM and a TGI [32] of 9.89 µM. For the same compound, the GI50 [33] was 4.61 µM, the TGI [33] was over 35.5 µM and the GI50 [34] was 8.9 µM. It also gave a TGI [34] of 33.6 µM, a GI50 [35] of 0.577 µM and a TGI [35] of over 100 µM. For the same compound, the GI50 [36] was 6.72 µM, the TGI [36] was over 44.2 µM and the GI50 [37] was 18.4 µM. It also gave a TGI [37] of 40 µM, a GI50 [38] of 0.41 µM and a GI50 [39] of 12.1 µM. The TGI [39] was 25.4 µM, the GI50 [40] was 8.26 µM and the TGI [40] was 28.6 µM. The GI50 [41] was 11.9 µM, the TGI [41] was over 42.2 µM and the GI50 [42] was 7.85 µM. It also gave a TGI [42] of 29.3 µM, a GI50 [43] of 8.89 µM and a TGI [43] of 29.4 µM. It also gave a GI50 [44] of 0.844 µM, a GI50 [45] of 1.93 µM and a TGI [45] of 9.82 µM. The GI50 [46] was 2.86 µM, the TGI [46] was 11.1 µM and the GI50 [47] was 13.8 µM. It also gave a TGI [47] of 29.3 µM, a GI50 [48] of 5.87 µM and a TGI [48] of 22.3 µM. The GI50 [49] was 3.98 µM, the TGI [49] was 17.1 µM and the GI50 [50] was 7.19 µM. For the same compound, the TGI [50] was 22.6 µM, the GI50 [51] was 7.88 µM and the TGI [51] was over 53.1 µM. For the same compound, the GI50 [52] was 14.6 µM, the TGI [52] was 33 µM and the GI50 [53] was 0.565 µM. The GI50 [54] was 6.82 µM, the TGI [54] was 36.4 µM and the GI50 [55] was 2.14 µM. It also gave a TGI [55] of 5.78 µM, a GI50 [56] of 7.73 µM and a TGI [56] of 22.8 µM.

Compound C[C@]12CCC3c4ccc(O)cc4CCC3C1CC[C@@]2(O)CNC(=O)/C=C/c1ccc(O)c(O)c1 (stereo not given in full) has a GI50 [2] of 2.47 µM, a TGI [2] of 7.26 µM and a GI50 [3] of 10.1 µM. For the same compound, the TGI [3] was 22.5 µM, the GI50 [4] was 4.07 µM and the TGI [4] was 22.1 µM. It also gave a GI50 [5] of 2.52 µM, a TGI [5] of 13.7 µM and a GI50 [6] of 6.24 µM. It also gave a TGI [6] of 30.8 µM, a GI50 [7] of 13.5 µM and a TGI [7] of 32.2 µM. The GI50 [8] was 2.65 µM, the TGI [8] was 17.1 µM and the GI50 [9] was 10.8 µM. It also gave a TGI [9] of 23.4 µM, a GI50 [10] of 11.4 µM and a TGI [10] of 24.9 µM. The GI50 [11] was 10.6 µM, the TGI [11] was 23.8 µM and the GI50 [12] was 3.03 µM. The TGI [12] was 15.3 µM, the GI50 [13] was 3.38 µM and the TGI [13] was 12.6 µM. For the same compound, the GI50 [14] was 2.37 µM, the TGI [14] was 6.52 µM and the GI50 [15] was 13.2 µM. For the same compound, the TGI [15] was 29 µM, the GI50 [16] was 6.61 µM and the TGI [16] was 23.9 µM. The GI50 [17] was 6.78 µM, the TGI [17] was 22.6 µM and the GI50 [18] was 5.65 µM. It also gave a TGI [18] of 22.8 µM, a GI50 [20] of 4.9 µM and a TGI [20] of 31.6 µM. It also gave a GI50 [21] of 3.55 µM, a TGI [21] of 10.4 µM and a GI50 [22] of 4.83 µM. It also gave a TGI [22] of 19.1 µM, a GI50 [23] of 12.4 µM and a TGI [23] of 45.4 µM. It also gave a GI50 [24] of 25.1 µM, a TGI [24] of 46.9 µM and a GI50 [57] of 8.56 µM. For the same compound, the TGI [57] was 50.7 µM, the GI50 [25] was 3.23 µM and the TGI [25] was 12 µM. For the same compound, the GI50 [26] was 2.63 µM, the TGI [26] was 9.68 µM and the GI50 [27] was 26.4 µM. For the same compound, the TGI [27] was 81.3 µM, the GI50 [28] was 24.8 µM and the TGI [28] was 59 µM. The GI50 [29] was 2.51 µM, the TGI [29] was 5.91 µM and the GI50 [30] was 2.89 µM. For the same compound, the TGI [30] was 21.5 µM, the GI50 [31] was 3.29 µM and the TGI [31] was 18.7 µM. For the same compound, the GI50 [32] was 5.1 µM, the TGI [32] was 18 µM and the GI50 [33] was 2.41 µM. The TGI [33] was 6.14 µM, the GI50 [34] was 2.89 µM and the TGI [34] was 11.1 µM. The GI50 [35] was 4.33 µM, the TGI [35] was 31.2 µM and the GI50 [36] was 4.33 µM. It also gave a TGI [36] of 16.8 µM, a GI50 [37] of 9.97 µM and a TGI [37] of 29.8 µM. The GI50 [38] was 9.36 µM, the TGI [38] was 27.2 µM and the GI50 [39] was 0.0562 µM. The TGI [39] was 6.54 µM, the GI50 [40] was 14.9 µM and the TGI [40] was 29.8 µM. It also gave a GI50 [41] of 16.7 µM, a TGI [41] of 34.5 µM and a GI50 [42] of 3.5 µM. For the same compound, the TGI [42] was 15.7 µM, the GI50 [43] was 5.22 µM and the TGI [43] was 17 µM. It also gave a GI50 [44] of 5.66 µM, a TGI [44] of 26.7 µM and a GI50 [45] of 11.7 µM. It also gave a TGI [45] of 33 µM, a GI50 [46] of 3.01 µM and a TGI [46] of 8.07 µM. It also gave a GI50 [47] of 12.1 µM, a TGI [47] of 33.6 µM and a GI50 [48] of 3.58 µM. It also gave a TGI [48] of 16.4 µM, a GI50 [49] of 3.29 µM and a TGI [49] of 14.8 µM. For the same compound, the GI50 [50] was 23.9 µM, the TGI [50] was over 100 µM and the GI50 [51] was 7.54 µM. For the same compound, the TGI [51] was 20.6 µM, the GI50 [52] was 9.45 µM and the TGI [52] was over 100 µM. It also gave a GI50 [53] of 5.09 µM, a TGI [53] of 31.2 µM and a GI50 [54] of 3.02 µM. It also gave a TGI [54] of 10.6 µM, a GI50 [58] of 3.99 µM and a TGI [58] of 20.1 µM. For the same compound, the GI50 [55] was 3.34 µM, the TGI [55] was 11.2 µM and the GI50 [56] was 15.4 µM. For the same compound, the TGI [56] was 33.1 µM.
